What all share (assay type): in vivo
For one experiment, the system named is Cochliobolus sativus. Put plainly: Spot Blotch of Wheat (COCHSA), whole-plant fungicide test. As to conditions: Bipolaris sorokiniana, foliar, 24 h, 200 ppm on foliage, one-day protectant test, read-out: COCHSA percent control of disease. Here is the method:
The activity of the compounds as effective fungicides was determined by applying the compounds to plants and observing control of fungal disease. The compounds were formulated at 200 ppm in 10 vol. percent acetone plus 90 vol. percent Triton X water (deionized water 99.99 wt. percent+0.01 wt. percent Triton X100), giving a “formulated test compound.” In a few cases, compounds were formulated at 100, 75 or 8.3 ppm rather than 200 ppm in 10 vol. percent acetone plus 90 vol. percent Triton X water (deionized water 99.99 wt. percent+0.01 wt. percent Triton X100), giving a ‘formulated test compound’. The compounds were tested for ability to control plant diseases in a 1-day protectant test (1DP) or a 2-day curative test (2DC). Formulated test compounds were applied to plants using a turn table sprayer fitted with two opposing air atomization nozzles which delivered approximately 1500 L/ha of spray volume. Plants were inoculated with spores of the fungus the next day (1DP), then incubated in an environment conducive to disease development. In a few cases, the compounds were tested for ability to control plant disease in a two-day curative test. Plants were inoculated with spores of the fungus two days prior to compound application, and incubated in an environment conducive to disease development both before and after compound application (2DC). For all types of tests, disease severity was evaluated 4 to 28 days later, depending on the speed of disease development.
Each pot contained 3-8 seedlings. These plants were sprayed until wet with the formulated test compound. On the following day, the leaves were inoculated with an aqueous spore suspension of Cochliobolus sativus and the plants were kept in high humidity for one to two days to permit spores to germinate and infect the leaf. The plants were then transferred to a greenhouse until disease developed on untreated control plants.
The following table presents the activity of typical compounds of the present invention when evaluated in these experiments. The effectiveness of the test compounds in controlling disease was determined by assessing the severity of disease on treated plants, then converting the severity to percent control based on the level of disease on untreated, inoculated plants.
TABLE 4: Activity of compounds as fungicides. Data are the level at which the given disease was controlled when the given compound was applied to the foliage of the plant at 200 ppm. In a few cases (noted in the table) the compound was applied to the plant at 100, 75 or 8.3 ppm. The plant was inoculated with the fungus one day after treatment. In a few cases (noted in the table) the plant was inoculated with the fungus two days before treatment.

Another experiment has as its system Colletotricum lagenarium. Description: Cucumber Anthracnose (COLLLA), whole-plant fungicide test. As to conditions: 200 ppm on foliage, one-day protectant test; for pest or weed control at 200 ppm: Cucumis sativus, foliar, 24 h, read-out: COLLLA percent control of disease.
Experiment [1] has as its system Erysiphe graminis f. sp. tritici. Put plainly: Powdery Mildew of Wheat (ERYSGT), whole-plant fungicide test. The conditions noted are these: Blumeria graminis, foliar, 24 h, 200 ppm on foliage, one-day protectant test, read-out: ERYSGT percent control of disease.
Another experiment relates to Leptosphaeria nodorum. Put plainly: Glume Blotch of Wheat (LEPTNO), whole-plant fungicide test. As to conditions: 200 ppm on foliage, one-day protectant test; for pest or weed control at 200 ppm: Parastagonospora nodorum, foliar, 24 h, read-out: LEPTNO percent control of disease.
A further experiment relates to Phytophthora infestans. Put plainly: whole plant or invertebrate. The conditions noted are these: for pest or weed control at 200 ppm: foliar, read-out: PHYTIN percent control of disease, 200 ppm on foliage, tomato, one-day protectant test.
In experiment [2] the test system is Puccinia recondita tritici. Description: Leaf Rust of Wheat (PUCCRT), whole-plant fungicide test. The conditions noted are these: 200 ppm on foliage, one-day protectant test; for pest or weed control at 200 ppm: Puccinia recondita, foliar, 24 h, read-out: PUCCRT percent control of disease.
For the next experiment, the system named is Magnaporthe grisea. Put plainly: whole plant or invertebrate. The conditions noted are these: for pest or weed control at 200 ppm: Pyricularia oryzae, in Oryza sativa, foliar, 24 h, read-out: PYRIOR percent control of disease, 200 ppm on foliage, rice, one-day protectant test.
Another experiment relates to Septoria tritici. Put plainly: Speckled Leaf Blotch of Wheat (SEPTTR), whole-plant fungicide test. The conditions noted are these: Zymoseptoria tritici, foliar, 24 h, 200 ppm on foliage, one-day protectant test, read-out: SEPTTR percent control of disease.
The test system of the next experiment is Erysiphe cichoracaerum. Put plainly: Cucumber Powdery Mildew (ERYSCI), whole-plant fungicide test. As to conditions: Erysiphe, foliar, 24 h, 200 ppm on foliage, one-day protectant test, read-out: ERYSCI percent control of disease.
The mark [3] stands for this setting: Phytophthora infestans, in Solanum lycopersicum, 24 h.

Consider `CC(C)c1ccc(C(C)Nc2ncnc3scc(Cl)c23)cc1` (stereo not shown) [Compound 1, (5-Chlorothieno[2,3-d]pyrimidin-4-yl)-[1-(4-isopropylphenyl)ethyl]amine], for which the pest or weed control at 200 ppm lay in the range of 0 to 49% in the experiment on Cochliobolus sativus and 80 to 100% in [1]. Besides, the “COLLLA percent control of disease” value in the experiment on Colletotricum lagenarium is “* (* is 0-49 percent control of disease)”. Besides, the “LEPTNO percent control of disease” value in the experiment on Leptosphaeria nodorum is on record as “*** (*** is 80-100 percent control of disease)”. Also, in the experiment with Phytophthora infestans (200 ppm on foliage, tomato, one-day protectant test), the “PHYTIN percent control of disease” value is reported as “** (** is 50-79 percent control of disease)”. Moreover, in experiment [2], the “PUCCRT percent control of disease” value was “*** (*** is 80-100 percent control of disease)”. Also, the “PYRIOR percent control of disease” value with Magnaporthe grisea (200 ppm on foliage, rice, one-day protectant test) is given as “*** (*** is 80-100 percent control of disease)”.
Turning to `CC(Nc1ncnc2scc(Cl)c12)c1ccc(OCc2ccccc2)cc1` (stereo not shown) [Compound 2], the pest or weed control at 200 ppm lay in the range of 0 to 49% in the experiment with Cochliobolus sativus; 0 to 49% in the experiment with Colletotricum lagenarium; 80 to 100% in experiment [1]; 80 to 100% in the experiment on Leptosphaeria nodorum; 80 to 100% in the experiment on Phytophthora infestans (setting [3]); 80 to 100% in [2]. The pest or weed control at 200 ppm in the experiment on Magnaporthe grisea and in the experiment with Septoria tritici was 80 to 100% in each case.
In the case of `Clc1csc2ncnc(NCCc3ccc(OCc4ccccc4)cc3)c12` [Compound 3], the pest or weed control at 200 ppm lay in the range of 0 to 49% with Cochliobolus sativus; 0 to 49% with Colletotricum lagenarium; 80 to 100% in experiment [1]; 80 to 100% with Leptosphaeria nodorum; 80 to 100% in the experiment on Phytophthora infestans (setting [3]); 80 to 100% in [2]. For the same molecule, the pest or weed control at 200 ppm with Magnaporthe grisea and in the experiment on Septoria tritici was 80 to 100% in each case.
For the molecule `CC(Nc1ncnc2scc(Cl)c12)c1ccc(OCc2ccc(OC(F)(F)F)cc2)cc1` (stereo not shown) [Compound 5], the pest or weed control at 200 ppm with Colletotricum lagenarium lay within 0 to 49%; in the experiment with Erysiphe cichoracaerum, 80 to 100%; in [1], 50 to 79%; in the experiment on Leptosphaeria nodorum, 50 to 79%; in [2], 80 to 100%; with Magnaporthe grisea, 50 to 79%. Besides, the pest or weed control at 200 ppm in the experiment on Septoria tritici is 80 to 100%.
Turning to `FC(F)(F)Oc1ccc(COc2ccc(CCNc3ncnc4scc(Cl)c34)cc2)cc1` [Compound 6], the pest or weed control at 200 ppm with Erysiphe cichoracaerum was in the range of 80 to 100%; in [1], 0 to 49%; in the experiment with Leptosphaeria nodorum it was 50 to 79%; in experiment [2], 80 to 100%; with Magnaporthe grisea, 50 to 79%; in the experiment with Septoria tritici, 50 to 79%.
With `CC(C)c1ccc(CCNc2ncnc3scc(Cl)c23)cc1` [Compound 7], the pest or weed control at 200 ppm in the experiment on Cochliobolus sativus fell in the range of 50 to 79%; in the experiment with Colletotricum lagenarium, 0 to 49%; in the experiment with Erysiphe cichoracaerum it was 80 to 100%; in [1] it was 80 to 100%; in the experiment on Leptosphaeria nodorum, 50 to 79%; in experiment [2] it was 80 to 100%. In addition, the pest or weed control at 200 ppm lay in the range of 80 to 100% with Magnaporthe grisea and 50 to 79% with Septoria tritici. Also, the pest or weed control at 100 ppm in the experiment on Phytophthora infestans (Phytophthora infestans, in Solanum lycopersicum, 24 h, read-out: PHYTIN percent control of disease, 100 ppm (footnote a), tomato, one-day protectant test) was in the range of 80 to 100%.
On to `Clc1csc2ncnc(NC3CCc4ccccc43)c12` (stereo not shown) [Compound 8], for which the pest or weed control at 200 ppm in the experiment with Colletotricum lagenarium fell in the range of 0 to 49%; in the experiment on Erysiphe cichoracaerum it was 0 to 49%; in experiment [1] it was 0 to 49%; in the experiment on Leptosphaeria nodorum it was 0 to 49%; with Phytophthora infestans (setting [3]), 0 to 49%; in experiment [2], 50 to 79%. Further, the figures for the pest or weed control at 200 ppm in the experiment with Magnaporthe grisea and with Septoria tritici were 50 to 79% and 0 to 49%, respectively.
Turning to `Clc1csc2ncnc(NC3Cc4ccccc4C3)c12` [Compound 9], the pest or weed control at 200 ppm in the experiment on Cochliobolus sativus lay in the range of 80 to 100%; in the experiment with Colletotricum lagenarium, 0 to 49%; in the experiment with Erysiphe cichoracaerum it was 80 to 100%; in [1], 0 to 49%; with Leptosphaeria nodorum, 50 to 79%; in the experiment on Phytophthora infestans (setting [3]), 80 to 100%. Further, the pest or weed control at 200 ppm lay in the range of 80 to 100% in [2], 80 to 100% with Magnaporthe grisea and 0 to 49% in the experiment with Septoria tritici.
As to `Clc1csc2ncnc(NC3CCCc4ccccc43)c12` (stereo not shown) [Compound 10], the pest or weed control at 200 ppm (with Colletotricum lagenarium; with Erysiphe cichoracaerum; in experiment [1]; with Leptosphaeria nodorum; in the experiment on Phytophthora infestans (setting [3]); in experiment [2]) was 0 to 49% in each case. The pest or weed control at 200 ppm with Magnaporthe grisea was in the range of 50 to 79%; with Septoria tritici, 0 to 49%.
Turning to `CC(Nc1ncnc2scc(Cl)c12)c1ccc[nH]1` (stereo not shown) [Compound 11], the pest or weed control at 200 ppm lay within 0 to 49% in the experiment on Cochliobolus sativus; 0 to 49% in the experiment on Colletotricum lagenarium; 0 to 49% in the experiment with Erysiphe cichoracaerum; 0 to 49% in experiment [1]; 50 to 79% with Leptosphaeria nodorum; 0 to 49% in the experiment with Phytophthora infestans (setting [3]). Further, the pest or weed control at 200 ppm (in experiment [2]; with Magnaporthe grisea; in the experiment with Septoria tritici) was 50 to 79% each time.
`CC(Nc1ncnc2scc(Cl)c12)c1ccn(C)c1` (stereo not shown) [Compound 12]: the pest or weed control at 200 ppm was in the range of 0 to 49% with Cochliobolus sativus; 0 to 49% in the experiment with Colletotricum lagenarium; 0 to 49% in the experiment on Erysiphe cichoracaerum; 0 to 49% in experiment [1]; 50 to 79% in the experiment on Leptosphaeria nodorum; 80 to 100% in the experiment with Phytophthora infestans (setting [3]). In addition, the pest or weed control at 200 ppm is 50 to 79% in experiment [2], 80 to 100% in the experiment with Magnaporthe grisea and 0 to 49% with Septoria tritici.
For `COC(=O)c1ccc(CNc2ncnc3scc(Cl)c23)cc1` [Compound 20], the pest or weed control at 200 ppm (with Cochliobolus sativus; in the experiment on Erysiphe cichoracaerum; in [1]; with Leptosphaeria nodorum; in [2]; with Magnaporthe grisea) was 0 to 49% in each case. Moreover, the pest or weed control at 200 ppm in the experiment with Septoria tritici was in the range of 50 to 79%.
As for `CC(Nc1ncnc2scc(Cl)c12)c1cnco1` (stereo not shown) [Compound 21], the pest or weed control at 200 ppm with Cochliobolus sativus lay in the range of 0 to 49%; in the experiment on Erysiphe cichoracaerum it was 50 to 79%; in experiment [1], 0 to 49%; with Leptosphaeria nodorum, 0 to 49%; in [2], 80 to 100%; in the experiment on Magnaporthe grisea, 80 to 100%. For the same molecule, in the experiment on Septoria tritici, the pest or weed control at 200 ppm is 50 to 79%.
Consider `CC(Nc1ncnc2scc(Cl)c12)c1nccs1` (stereo not shown) [Compound 22], for which the pest or weed control at 200 ppm lay within 0 to 49% in the experiment with Cochliobolus sativus; 80 to 100% in the experiment with Erysiphe cichoracaerum; 0 to 49% in experiment [1]; 0 to 49% in the experiment on Leptosphaeria nodorum; 80 to 100% in experiment [2]; 80 to 100% in the experiment with Magnaporthe grisea. Further, the pest or weed control at 200 ppm in the experiment on Septoria tritici lay within 50 to 79%.
Regarding `CC(Nc1ncnc2scc(Cl)c12)c1ccc(Cl)nc1` (stereo not shown) [Compound 28], the pest or weed control at 200 ppm in the experiment with Cochliobolus sativus is 0 to 49%; in experiment [1] it was 0 to 49%; with Leptosphaeria nodorum it was 80 to 100%; in [2], 80 to 100%; with Magnaporthe grisea, 80 to 100%; in the experiment with Septoria tritici it was 80 to 100%.
